# Measured values from patent US7732604B2, “Triazolopyrazine derivatives” (Pfizer Inc., priority 2006, dated 2010).
# Structures can show the parent of a compound that is named as a salt.
# Molecular target: T1, HGFR (Homo sapiens, UniProt P08581)
# T1 construct: purchased Upstate 14-526
# Test: HGFR continuous-coupled spectrophotometric assay (tyrosine kinase activity on Met-2 substrate peptide)
# Type: biochemical
# Settings: HGFR 50 nM, Met-2 peptide 0.5 mM, ATP 300 μM, 37° C., absorbance 340 nm; read-out: Ki
# T1 sequence (P08581 974-1390 limits assumed): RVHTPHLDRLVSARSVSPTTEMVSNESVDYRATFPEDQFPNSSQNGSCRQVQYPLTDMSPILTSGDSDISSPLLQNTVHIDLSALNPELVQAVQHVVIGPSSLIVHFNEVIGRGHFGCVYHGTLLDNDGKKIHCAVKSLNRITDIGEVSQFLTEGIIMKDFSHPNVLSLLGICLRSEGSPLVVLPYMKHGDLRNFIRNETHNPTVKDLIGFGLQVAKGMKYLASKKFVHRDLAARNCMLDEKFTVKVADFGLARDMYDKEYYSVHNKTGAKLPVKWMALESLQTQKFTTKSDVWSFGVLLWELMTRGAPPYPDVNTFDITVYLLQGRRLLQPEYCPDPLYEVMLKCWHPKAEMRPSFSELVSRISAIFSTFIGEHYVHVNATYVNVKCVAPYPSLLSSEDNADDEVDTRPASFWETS
row,Ki [nM],SMILES
1,4,"C[C@H](O)CNc1cnc2nnn(Cc3cc4cccnc4cc3F)c2n1 [Example 173, (2)-1-({1-[(7-fluoro-quinolin-6-yl)meth-yl]-1H-[1,2,3]tri-azolo[4,5-b]pyra-zin-6-yl}ami-no)propan-2-ol]"
2,7,"CC(O)CNc1cnc2nnn(Cc3ccc4ncccc4c3)c2n1 (stereo not shown) [Example 174, 1-{[1-(quinolin-6-yl-methyl)-1H-[1,2,3]tri-azolo[4,5-b]pyra-zin-6-yl]ami-no}propan-2-ol]"
3,8,"CC(O)CNc1cnc2nnn(Cc3ccc4ncccc4c3)c2n1 (stereo not shown) [Example 175, 1-{[1-(quinolin-6-yl-methyl)-1H-[1,2,3]tri-azolo[4,5-b]pyra-zin-6-yl]ami-no}propan-2-ol]"
4,23,"NC(=O)C1CCN(c2cnc3nnn(Cc4ccc5ncccc5c4)c3n2)C1 (stereo not shown) [Example 176, 1-[1-(quinolin-6-yl-methyl)-1H-[1,2,3]tri-azolo[4,5-b]pyra-zin-6-yl]pyrro-lidine-3-carbox-amide]"
5,29,"NC(=O)C1CCN(c2cnc3nnn(Cc4ccc5ncccc5c4)c3n2)C1 (stereo not shown) [Example 177, 1-[1-(quinolin-6-yl-methyl)-1H-[1,2,3]tri-azolo[4,5-b]pyra-zin-6-yl]pyrro-lidine-3-carboxamide]"
6,412,"Cc1cnc2nnn(C(C)c3ccc4c(c3)OCCO4)c2n1 (stereo not shown) [Example 180, 1-[1-(3,4-Dihydro-benzo[1,4]dioxin-6-yl)-eth-yl]-6-meth-yl-1H-[1,2,3]tri-azolo[4,5-b]pyrazine]"
7,177,"CC(c1ccc2c(c1)OCCO2)n1nnc2ncc(N3CC[C@@H](N)C3)nc21 (stereo partly drawn) [Example 181, (R)-1-{3-[1-(2,3-Dihydro-benzo[1,4]dioxin-6-yl)-eth-yl]-3H-[1,2,3]triaz-olo[4,5-b]pyra-zin-5-yl}-pyrro-lidin-3-ylamine]"
8,857,"CC(C)(O)c1cnc2nnn(Cc3ccc4ncccc4c3)c2n1 [Example 182, 2-(3-Quinolin-6-yl-methyl-3H-[1,2,3]tri-azolo[4,5-b]pyra-zin-5-yl)-pro-pan-2-ol]"
9,837,"CC(N)c1cnc2nnn(Cc3ccc4ncccc4c3)c2n1 (stereo not shown) [Example 183, 1-(3-Quinolin-6-yl-methyl-3H-[1,2,3]tri-azolo[4,5-b]pyra-zin-5-yl)-ethylamine]"
10,231,"CC(O)c1cnc2nnn(Cc3ccc4ncccc4c3)c2n1 (stereo not shown) [Example 184, 1-(3-Quinolin-6-yl-methyl-3H-[1,2,3]tri-azolo[4,5-b]pyra-zin-5-yl)-ethanol]"
11,98,"C[C@H](c1ccc2c(c1)OCCO2)n1nnc2ncc(-c3cnn(C)c3)nc21 [Example 185, 1-[(R)-1-(2,3-Dihydro-benzo[1,4]dioxin-6-yl)-eth-yl]-6-(1-meth-yl-1H-pyra-zol-4-yl)-1H-[1,2,3]tri-azolo[4,5-b]pyrazine]"
12,564,"NC(=O)[C@H]1CCCN1c1cnc2nnn(Cc3ccc4ncccc4c3)c2n1 [Example 186, 1-[1-(quinolin-6-yl-methyl)-1H-[1,2,3]tri-azolo[4,5-b]pyra-zin-6-yl]-D-pro-linamide]"
13,103,"CC(C)(CNc1cnc2nnn(Cc3ccc4ncccc4c3)c2n1)NC(=O)OC(C)(C)C [Example 188, tert-butyl(1,1-di-methyl-2-{[1-(quino-lin-6-yl-methyl)-1H-[1,2,3]tri-azolo[4,5-b]pyra-zin-6-yl]ami-no}ethyl)carbamate]"
14,187,NC(=O)C1(N)CCN(c2cnc3nnn(Cc4ccc5ncccc5c4)c3n2)C1 (stereo not shown) [Example 189]
15,647,"CC1(C)CN(c2cnc3nnn(Cc4ccc5ncccc5c4)c3n2)C(=O)N1 [Example 190, 4,4-dimethyl-1-[1-(quino-lin-6-yl-methyl)-1H-[1,2,3]tri-azolo[4,5-b]pyra-zin-6-yl]imida-zolidin-2-one]"
16,142,"FC1CCN(C2CCN(c3cnc4nnn(Cc5ccc6ncccc6c5)c4n3)C2)CC1 (stereo not shown) [Example 191, 6-({6-[3-(4-fluoro-piperidin-1-yl)pyrro-lidin-1-yl]-1H-[1,2,3]tri-azolo[4,5-b]pyra-zin-1-yl}methyl)quinoline]"
17,108,"COc1cnc2nnn(Cc3ccc4ncccc4c3)c2n1 [Example 193, 6-[(6-methoxy-1H-[1,2,3]tri-azolo[4,5-b]pyra-zin-1-yl)meth-yl]quinoline]"
18,811,"O=C(O)c1cnc2nnn(Cc3ccc4ncccc4c3)c2n1 [Example 194, 1-(quinolin-6-yl-methyl)-1H-[1,2,3]tri-azolo[4,5-b]pyra-zine-6-carboxylic acid]"
19,117,"CNC(=O)c1cnc2nnn(Cc3ccc4ncccc4c3)c2n1 [Example 195, N-methyl-1-(quino-lin-6-yl-methyl)-1H-[1,2,3]tri-azolo[4,5-b]pyra-zine-6-carboxamide]"
20,174,"COC(=O)c1cnc2nnn(Cc3ccc4ncccc4c3)c2n1 [Example 196, methyl 1-(quino-lin-6-yl-methyl)-1H-[1,2,3]tri-azolo[4,5-b]pyra-zine-6-carboxylate]"
21,31,"CC(=O)N[C@H]1CCN(c2cnc3nnn(Cc4ccc5ncccc5c4)c3n2)C1 [Example 198, N-{(3S)-1-[1-(quino-lin-6-yl-methyl)-1H-[1,2,3]tri-azolo[4,5-b]pyra-zin-6-yl]pyrro-lidin-3-yl}acetamide]"
22,138,"C[C@H]1COCCN1c1cnc2nnn(Cc3ccc4ncccc4c3)c2n1 [Example 199, 6-({6-[(3S)-3-methyl-morpholin-4-yl]-1H-[123]tri-azolo[45-b]pyra-zin-1-yl}methyl)quinoline]"
23,162,"CC(C)(C)OC(=O)N[C@@H]1CCN(c2cnc3nnn(Cc4ccc5ncccc5c4)c3n2)C1 [Example 200, (R)-tert-butyl 1-(3-(quino-lin-6-yl-methyl)-3H-[1,2,3]tri-azolo[4,5-b]pyra-zin-5-yl)pyrrolidin-3-ylcarbamate]"
24,182,"CC(C)(C)OC(=O)N1CCN(c2cnc3nnn(Cc4ccc5ncccc5c4)c3n2)CC1 [Example 201, tert-butyl 4-(3-(quino-lin-6-yl-methyl)-3H-[1,2,3]tri-azolo[4,5-b]pyra-zin-5-yl)pipe-razine-1-carboxylate]"
25,620,"CC(C)(C)OC(=O)N[C@@H]1CCCN(c2cnc3nnn(Cc4ccc5ncccc5c4)c3n2)C1 [Example 202, (R)-tert-butyl 1-(3-(quino-lin-6-yl-methyl)-3H-[1,2,3]tri-azolo[4,5-b]pyra-zin-5-yl)pipe-ridin-3-ylcarbamate]"
26,570,"CC(C)(C)OC(=O)N[C@H]1CCCN(c2cnc3nnn(Cc4ccc5ncccc5c4)c3n2)C1 [Example 203, (S)-tert-butyl 1-(3-(quino-lin-6-yl-methyl)-3H-[1,2,3]tri-azolo[4,5-b]pyra-zin-5-yl)pipe-ridin-3-ylcarbamate]"
27,37,"CN(CCO)[C@@H]1CCN(c2cnc3nnn(Cc4ccc5ncccc5c4)c3n2)C1 [Example 204, 2-(methyl{(3R)-1-[1-(quino-lin-6-yl-methyl)-1H-[1,2,3]tri-azolo[4,5-b]pyra-zin-6-yl]pyrro-lidin-3-yl}ami-no)ethanol. TFA salt]"
28,22,"c1cnc2ccc(Cn3nnc4ncc(N5CC[C@@H](N6CCOCC6)C5)nc43)cc2c1 [Example 206, 6-({6-[(3R)-3-morpho-lin-4-ylpyrro-lidin-1-yl]-1H-[1,2,3]tri-azolo[4,5-b]pyra-zin-1-yl}meth-yl)quinoline. TFA salt]"
